According to patent US20240101544A1, “INHIBITORS OF QPCTL AND QPCT” (priority 2022, published 2024):

How the values were obtained:
QPCT (rhQPCT) = QPCT (rhQPCT) (Homo sapiens (Human), UniProt Q16769); assay: QPCT Enzymatic Activity Assay (coupled-enzyme fluorescent assay, H-Gln-AMC substrate); type: biochemical; conditions: rhQPCT 10-12 nM, 10 μM H-Gln-AMC; read-out: QPCT Inhibition IC50
Procedure: QPCT activity was measured in a coupled-enzyme assay using the QPCT substrate, glutamine-7-amido-4-methylcoumarin (H-Gln-AMC, Bachem), which is converted to pyroglutamyl-AMC by QPCT. Pyroglutamyl-AMC is then converted to the fluorescent molecule, AMC, by incubation with the human enzyme pyroglutamyl peptidase-1 (PGPEP-1). […] Following the incubation, H-Gln-AMC substrate was diluted in assay buffer and added to each well for a final concentration of 10 μM. The reaction was incubated for 60 min at 37° C., before stopping it by boiling at 100° C. for 5 minutes and cooling the plate at 4° C. for 3 minutes. […] Following incubation, the fluorescence was measured with a plate reader using excitation at 380 nm and emission at 460 nm. […] Concentration-response-curves and IC50 values (Table 17) were generated using Collaborative Drug Discovery software.

QPCTL = QPCTL (Homo sapiens (Human), UniProt Q9NXS2); assay: QPCTL Enzymatic Activity Assay (coupled-enzyme fluorescent assay, H-Gln-AMC substrate); type: biochemical; conditions: recombinant truncated human QPCTL 10-12 nM, 10 μM H-Gln-AMC; read-out: QPCTL Inhibition IC50
Chain of QPCTL (Q9NXS2 53-382): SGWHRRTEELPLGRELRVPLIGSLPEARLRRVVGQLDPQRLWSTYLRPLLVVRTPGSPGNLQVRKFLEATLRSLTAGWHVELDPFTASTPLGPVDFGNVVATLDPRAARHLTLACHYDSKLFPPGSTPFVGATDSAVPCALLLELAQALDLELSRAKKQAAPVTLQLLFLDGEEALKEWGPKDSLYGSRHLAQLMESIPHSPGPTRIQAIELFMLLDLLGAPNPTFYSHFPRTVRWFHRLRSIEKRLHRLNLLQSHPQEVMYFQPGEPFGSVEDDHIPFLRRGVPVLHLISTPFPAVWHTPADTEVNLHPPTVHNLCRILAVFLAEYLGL
Procedure: Protein expression was induced when the bacterial culture OD600 was approximately 0.7 using 1 mM IPTG and the cells incubated at 20° C. for approximately 16 hours. The QPCTL was purified using nickel column purification, digested by TEV, followed by a second nickel column purification. The protein was further purified by size-exclusion chromatography using a Superdex™ 75 column. The final protein was concentrated using ultrafiltration tubes at a molecular weight cutoff of 10 kilodaltons and stored frozen in protein buffer (25 mM Tris pH 8.3, 150 mM NaCl).
QPCTL activity was measured in a coupled-enzyme assay using the QPCTL substrate, glutamine-7-amido-4-methylcoumarin (H-Gln-AMC, Bachem), which is converted to pyroglutamyl-AMC by QPCTL. Pyroglutamyl-AMC is then converted to the fluorescent molecule, AMC, by incubation with the human enzyme pyroglutamyl peptidase-1. […] Final concentrations of DMSO and test compounds were 2% and 30-100 μM, respectively. Following the incubation, H-Gln-AMC substrate was diluted in assay buffer and added to each well for a final concentration of 10 μM. The reaction was incubated for 60 min at 37° C., before stopping it by boiling at 100° C. for 5 minutes and cooling the plate at 4° C. for 3 minutes. […] Following incubation, the fluorescence was measured with a plate reader using excitation at 380 nm and emission at 460 nm. […] Concentration-response-curves and IC50 values (Table 17) were generated using curve fit software.

Chain of QPCT (rhQPCT) (Q16769 29-361): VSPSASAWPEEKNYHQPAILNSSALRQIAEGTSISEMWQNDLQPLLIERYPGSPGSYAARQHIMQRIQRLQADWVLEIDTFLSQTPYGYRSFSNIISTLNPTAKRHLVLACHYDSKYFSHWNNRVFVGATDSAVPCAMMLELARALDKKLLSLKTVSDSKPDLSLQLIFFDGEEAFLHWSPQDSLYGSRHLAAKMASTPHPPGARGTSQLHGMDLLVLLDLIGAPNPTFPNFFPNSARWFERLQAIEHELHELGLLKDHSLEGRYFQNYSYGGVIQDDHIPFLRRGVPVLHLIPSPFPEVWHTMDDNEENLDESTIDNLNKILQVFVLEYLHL

Row | IC50 (QPCT (rhQPCT)) [nM] | IC50 (QPCTL) [nM] | SMILES
1 | < 100 | < 100 | Cc1cc(-c2ccc(-c3cn[nH]c3)c(C#N)c2N2CCC(c3nncn3C)CC2)cnn1 [Example 74, 2-(4-(4-methyl-4H-1,2,4-triazol-3-yl)piperidin-1-yl)-3-(6-methylpyridazin-4-yl)-6-(1H-pyrazol-4-yl)benzonitrile]
2 | 100 to 1000 | 100 to 1000 | Cn1cnnc1C1[C@H]2CN(c3c(C#N)cccc3-c3ccc(F)nc3)C[C@@H]12 (stereo partly drawn) [Example 75, 3-(6-fluoropyridin-3-yl)-2-((1R,5S)-6-(4-methyl-4H-1,2,4-triazol-3-yl)-3-azabicyclo[3.1.0]hexan-3-yl)benzonitrile]
3 | < 100 | 100 to 1000 | Cn1ncc(-c2cccc(C#N)c2N2CCC(c3nncn3C)CC2)n1 [Example 99, 3-(2-methyl-2H-1,2,3-triazol-4-yl)-2-(4-(4-methyl-4H-1,2,4-triazol-3-yl)piperidin-1-yl)benzonitrile]
4 | < 100 | 100 to 1000 | Cn1cnnc1C1CCN(c2c(C#N)cccc2-c2ccc(F)c(F)c2)CC1 [Example 102, 3′,4′-difluoro-2-(4-(4-methyl-4H-1,2,4-triazol-3-yl)piperidin-1-yl)-[1,1′-biphenyl]-3-carbonitrile]
5 | < 100 | 100 to 1000 | Cn1cnnc1C1CCN(c2c(C#N)cccc2-c2ccc(F)cc2F)CC1 [Example 103, 2′,4′-difluoro-2-(4-(4-methyl-4H-1,2,4-triazol-3-yl)piperidin-1-yl)-[1,1′-biphenyl]-3-carbonitrile]
6 | 100 to 1000 | 100 to 1000 | Cn1cnnc1C1CCN(c2c(C#N)cccc2-c2cnnn2C)CC1 [Example 104, 3-(1-methyl-1H-1,2,3-triazol-5-yl)-2-(4-(4-methyl-4H-1,2,4-triazol-3-yl)piperidin-1-yl)benzonitrile]
7 | < 100 | 100 to 1000 | Cn1cnnc1C1CCN(c2c(C#N)cccc2-c2cccc(C=O)c2)CC1 [Example 110, 3′-formyl-2-(4-(4-methyl-4H-1,2,4-triazol-3-yl)piperidin-1-yl)-[1,1′-biphenyl]-3-carbonitrile]
8 | < 100 | 100 to 1000 | Cn1cnnc1C1CCN(c2c(C#N)cccc2-c2ccc(B(O)O)cc2)CC1 [Example 111, (3′-cyano-2′-(4-(4-methyl-4H-1,2,4-triazol-3-yl)piperidin-1-yl)-[1,1′-biphenyl]-4-yl)boronic acid]
9 | < 100 | < 100 | Cn1cnnc1C1CCN(c2c(C#N)cccc2-c2cccc(B(O)O)c2)CC1 [Example 112, (3′-cyano-2′-(4-(4-methyl-4H-1,2,4-triazol-3-yl)piperidin-1-yl)-[1,1′-biphenyl]-3-yl)boronic acid]
10 | < 100 | < 100 | Cn1cnnc1C1CCN(c2c(C#N)cccc2-c2ccc3[nH]nc(O)c3c2)CC1 [Example 113, 3-(3-hydroxy-1H-indazol-5-yl)-2-(4-(4-methyl-4H-1,2,4-triazol-3-yl)piperidin-1-yl)benzonitrile]
11 | < 100 | < 100 | Cn1cnnc1C1CCN(c2c(C#N)cccc2-c2cncc(Br)c2)CC1 [Example 114, 3-(5-bromopyridin-3-yl)-2-(4-(4-methyl-4H-1,2,4-triazol-3-yl)piperidin-1-yl)benzonitrile]
12 | < 100 | < 100 | Cn1cnnc1C1CCN(c2c(C#N)cccc2-c2ccc(O)nc2)CC1 [Example 116, 3-(6-hydroxypyridin-3-yl)-2-(4-(4-methyl-4H-1,2,4-triazol-3-yl)piperidin-1-yl)benzonitrile]
13 | 100 to 1000 | 100 to 1000 | Cn1cnnc1C1CCN(c2c(C#N)cccc2-c2ccc3c(c2)B(O)OC3)CC1 [Example 121, 3-(1-hydroxy-1,3-dihydrobenzo[c][1,2]oxaborol-6-yl)-2-(4-(4-methyl-4H-1,2,4-triazol-3-yl)piperidin-1-yl)benzonitrile]
14 | < 100 | 100 to 1000 | Cn1cnnc1C1CCN(c2c(C#N)cccc2-c2cnc3cn[nH]c3c2)CC1 [Example 125, 2-(4-(4-methyl-4H-1,2,4-triazol-3-yl)piperidin-1-yl)-3-(1H-pyrazolo[4,3-b]pyridin-6-yl)benzonitrile]
15 | < 100 | < 100 | Cn1ccc(-c2ccc(-c3cncc(B(O)O)c3)c(N3CCC(c4nncn4C)CC3)c2C#N)n1 [Example 126, (5-(3-cyano-4-(1-methyl-1H-pyrazol-3-yl)-2-(4-(4-methyl-4H-1,2,4-triazol-3-yl)piperidin-1-yl)phenyl)pyridin-3-yl)boronic acid]
16 | < 100 | < 100 | Cn1cnnc1N1CCN(c2c(C#N)ccc(F)c2-c2ccc(F)nc2)CC1 [Example 127, 4-fluoro-3-(6-fluoropyridin-3-yl)-2-(4-(4-methyl-4H-1,2,4-triazol-3-yl)piperazin-1-yl)benzonitrile]
17 | < 100 | 100 to 1000 | C#Cc1ccc(-c2cccc(C#N)c2N2CCC(c3nncn3C)CC2)cc1C=O [Example 128, 4′-ethynyl-3′-formyl-2-(4-(4-methyl-4H-1,2,4-triazol-3-yl)piperidin-1-yl)-[1,1′-biphenyl]-3-carbonitrile]
18 | < 100 | < 100 | Cn1cnnc1N1CCN(c2c(-c3ccc(F)nc3)ccc(C3CC3)c2C#N)CC1 [Example 129, 6-cyclopropyl-3-(6-fluoropyridin-3-yl)-2-(4-(4-methyl-4H-1,2,4-triazol-3-yl)piperazin-1-yl)benzonitrile]
19 | 1000 to 10000 | 1000 to 10000 | Cn1cnnc1C1CCN(c2c(C#N)cc(F)cc2-c2ccc(F)nc2)CC1 [Example 130, 5-fluoro-3-(6-fluoropyridin-3-yl)-2-(4-(4-methyl-4H-1,2,4-triazol-3-yl)piperidin-1-yl)benzonitrile]
20 | 100 to 1000 | 1000 to 10000 | Cn1ccc(-c2cc(F)c(-c3ccc(F)nc3)c(N3CCC(c4nncn4C)CC3)c2C#N)n1 [Example 131, 4-fluoro-3-(6-fluoropyridin-3-yl)-6-(1-methyl-1H-pyrazol-3-yl)-2-(4-(4-methyl-4H-1,2,4-triazol-3-yl)piperidin-1-yl)benzonitrile]
21 | < 100 | 100 to 1000 | Cn1cnnc1C1CCN(c2c(C#N)c(C3CC3)cc(F)c2-c2ccc(F)nc2)CC1 [Example 135, 6-cyclopropyl-4-fluoro-3-(6-fluoropyridin-3-yl)-2-(4-(4-methyl-4H-1,2,4-triazol-3-yl)piperidin-1-yl)benzonitrile]
22 | < 100 | < 100 | Cn1cnnc1N1CCN(c2c(C#N)ccnc2-c2ccc(F)nc2)CC1 [Example 136, 6′-fluoro-3-(4-(4-methyl-4H-1,2,4-triazol-3-yl)piperazin-1-yl)-[2,3′-bipyridine]-4-carbonitrile]

Row | SMILES | IC50 (QPCT (rhQPCT)) [nM] | IC50 (QPCTL) [nM]
23 | Cn1cnnc1C1CCN(c2c(C#N)cccc2-c2cncc(OS(=O)(=O)F)c2)CC1 [Example 118, 5-(3-cyano-2-(4-(4-methyl-4H-1,2,4-triazol-3-yl)piperidin-1-yl)phenyl)pyridin-3-yl sulfurofluoridate] | < 100 | < 100
24 | Cn1cnnc1C1CCN(c2c(C#N)cccc2-c2ccc(OS(=O)(=O)F)nc2)CC1 [Example 119, 5-(3-cyano-2-(4-(4-methyl-4H-1,2,4-triazol-3-yl)piperidin-1-yl)phenyl)pyridin-2-yl sulfurofluoridate] | 100 to 1000 | < 100
